Consider one sequence from patent US9079973B2, “Natriuretic polypeptides for reducing restenosis” (Mayo Foundation for Medical Education and Research, priority 2008, dated 2015).

For series [1] the following is noted: cited from earlier work.
In series [2] the test system is human aortic vascular smooth muscle cells (HAoSMC). Description: HAoSMC proliferation (BrdU uptake). Particulars: serum-supplemented media (5%), 24 hours. The format is cell-based.

Turning to GLSKGCFGLKLDRIGSMSGLGC [CNP], the “half-life after administration to a mammal” value in series [1] is “about a minute and a half”. In addition, the reduced proliferation entry in series [2] (10^−5 M NP) is given as “about 30%”; in series [2] (10^−6 M NP) it was “about 20%”; in series [2] (10^−7 M NP), “about 20%”.
